Source: patent publication US20250163066A1, “PROTACs of MALT1” (TEGID THERAPEUTICS, INC., priority 2022, published 2025)

target: MALT1 (Homo sapiens (Human), UniProt Q9UDY8); test: MALT1 enzymatic activity inhibition (fluorescence, Ac-LRSR-AMC substrate); type: biochemical; settings: recombinant MALT1 1.5 ng/μl, Ac-LRSR-AMC 1 μM
Method: Compound activity was determined using recombinant MALT1 protein (Creative Biomart, Cat #MALT1-28H) and Ac-LRSR-AMC Substrate in an in vitro enzymatic reaction. The enzymatic assay used to determine activity was a Fluorescence assay using a Microplate Reader ClarioStar Plus. The enzymatic reaction was carried out in 1× Assay Buffer (50 mM HEPES pH 7.2-7.4, 100 mM NaCl, 900 mM Sodium citrate, 10 mM DTT). The compounds were dispensed on a 384-well Diamond Well Plate (Axygen, Cat #P-384-120SQ-C—S) using the Biomek FX liquid handling system at 100× solutions of compounds in DMSO. 2.5×MALT1 mix (final concentration 1.5 ng/μl of MALT1) was prepared in 1× Assay Buffer and 8 μl of mixture per well were added into 384w white Reaction Plates with NBS (Corning, Cat #4513). 8 μl of 1× Assay Buffer were used for negative control. Plates were centrifuged for 1 min at 200 g. Next, the compounds were added to Reaction plates using Biomek station via following steps: 1 μl of 100× compounds (in DMSO) was mixed thoroughly with 19 μl of 1× Assay Buffer, then 4 μl of this mixture were added to Reaction plates with 8 μl of MALT1 mix. Plates were centrifuged for 1 min at 200 g and incubated for 10 minutes at rt. Next, 2.5× Ac-LRSR-AMC mix (final concentration 1 μM of Ac-LRSR-AMC) was prepared in 1× Assay Buffer and 8 μl of mixture per well were added to Reaction Plates using Biomek station. Plates were centrifuged for 1 min at 200 g, then the fluorescence was measured immediately using Microplate Reader. Plates were incubated for 30 minutes at 37° C., then for 30 minutes at rt. The fluorescence was measured after the whole incubation using Microplate Reader. The reaction signal was calculated as the subtraction of the first data set values from the second. The % inhibition was then used to calculate the IC50 values. The results of this assay are shown in the Table A. The values of EC50 shown as a letters A-E, where: A≤0.2 μM; 0.2 μM<B≤0.5 μM; 0.5 μM<C≤1 μM; 1<D≤5 μM; E >5.

MALT1, sequence (Q9UDY8 whole entry): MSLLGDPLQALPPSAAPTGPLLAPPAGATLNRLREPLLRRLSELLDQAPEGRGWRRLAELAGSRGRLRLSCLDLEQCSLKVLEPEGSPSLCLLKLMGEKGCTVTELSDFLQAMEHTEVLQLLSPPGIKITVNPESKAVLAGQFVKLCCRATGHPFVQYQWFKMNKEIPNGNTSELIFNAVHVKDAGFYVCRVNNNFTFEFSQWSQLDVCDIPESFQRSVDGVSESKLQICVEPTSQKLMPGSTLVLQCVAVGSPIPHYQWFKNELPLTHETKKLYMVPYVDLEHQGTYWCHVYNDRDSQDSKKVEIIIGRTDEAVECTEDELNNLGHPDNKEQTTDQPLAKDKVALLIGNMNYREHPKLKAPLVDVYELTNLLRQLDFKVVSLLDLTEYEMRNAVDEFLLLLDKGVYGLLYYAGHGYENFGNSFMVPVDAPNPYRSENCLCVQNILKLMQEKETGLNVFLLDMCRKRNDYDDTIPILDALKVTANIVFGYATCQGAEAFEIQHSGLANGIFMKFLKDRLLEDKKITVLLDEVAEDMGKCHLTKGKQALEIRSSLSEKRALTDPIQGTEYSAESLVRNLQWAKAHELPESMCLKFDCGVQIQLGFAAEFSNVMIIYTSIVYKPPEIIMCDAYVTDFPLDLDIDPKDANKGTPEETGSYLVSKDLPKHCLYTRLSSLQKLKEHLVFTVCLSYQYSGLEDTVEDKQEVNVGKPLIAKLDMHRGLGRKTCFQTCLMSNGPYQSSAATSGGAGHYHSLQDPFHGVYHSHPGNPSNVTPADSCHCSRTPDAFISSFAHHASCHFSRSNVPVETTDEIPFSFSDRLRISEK

Row | SMILES | EC50
1 | Cc1cc(NC(=O)Nc2cnc3ccnn3c2C2CCCO2)cnc1N1CCN(C(=O)CCOCCOCCN2CCN(c3ccc4c(c3)CN(C3CCC(=O)NC3=O)C4=O)CC2)CC1 (stereo not drawn) [Compound 31, 1-[6-[4-[3-[2-[2-[4-[2-(2,6-dioxo-3-piperidyl)-1-oxo-isoindolin-5-yl]piperazin-1-yl]ethoxy]ethoxy]propanoyl]piperazin-1-yl]-5-methyl-3-pyridyl]-3-(7-tetrahydrofuran-2-ylpyrazolo[1,5-a]pyrimidin-6-yl)urea] | > 5 µM
2 | O=C(CCOCCOCCN1CCN(c2ccc3c(c2)CN(C2CCC(=O)NC2=O)C3=O)CC1)NCCOc1ncc(Cl)cc1NC(=O)Nc1cnc2ccnn2c1C1CCCO1 (stereo not drawn) [Compound 32, N-[2-[[5-chloro-3-[(7-tetrahydrofuran-2-ylpyrazolo[1,5-a]pyrimidin-6-yl)carbamoylamino]-2-pyridyl]oxy]ethyl]-3-[2-[2-[4-[2-(2,6-dioxo-3-piperidyl)-1-oxo-isoindolin-5-yl]piperazin-1-yl]ethoxy]ethoxy]propanamide] | 1 to 5 µM
3 | Cc1cc(NC(=O)Nc2cnc3ccnn3c2C2CCCO2)cnc1-n1cc(C(=O)NCCOCCOCCC(=O)N2CCN(c3ccc4c(c3)CN(C3CCC(=O)NC3=O)C4=O)CC2)cn1 (stereo not drawn) [Compound 33, N-[2-[2-[3-[4-[2-(2,6-dioxo-3-piperidyl)-1-oxo-isoindolin-5-yl]piperazin-1-yl]-3-oxo-propoxy]ethoxy]ethyl]-1-[3-methyl-5-[(7-tetrahydrofuran-2-ylpyrazolo[1,5-a]pyrimidin-6-yl)carbamoylamino]-2-pyridyl]pyrazole-4-carboxamide] | 1 to 5 µM
4 | Cc1cc(NC(=O)Nc2cnc3ccnn3c2C2CCCO2)cnc1N1CCN(C(=O)CCOCCN2CCN(c3ccc4c(c3)CN(C3CCC(=O)NC3=O)C4=O)CC2)CC1 (stereo not drawn) [Compound 35, 1-[6-[4-[3-[2-[4-[2-(2,6-dioxo-3-piperidyl)-1-oxo-isoindolin-5-yl]piperazin-1-yl]ethoxy]propanoyl]piperazin-1-yl]-5-methyl-3-pyridyl]-3-(7-tetrahydrofuran-2-ylpyrazolo[1,5-a]pyrimidin-6-yl)urea] | > 5 µM
5 | O=C(CCOCCN1CCN(c2ccc3c(c2)CN(C2CCC(=O)NC2=O)C3=O)CC1)NCCOc1ncc(Cl)cc1NC(=O)Nc1cnc2ccnn2c1C1CCCO1 (stereo not drawn) [Compound 36, N-[2-[[5-chloro-3-[(7-tetrahydrofuran-2-ylpyrazolo[1,5-a]pyrimidin-6-yl)carbamoylamino]-2-pyridyl]oxy]ethyl]-3-[2-[4-[2-(2,6-dioxo-3-piperidyl)-1-oxo-isoindolin-5-yl]piperazin-1-yl]ethoxy]propanamide] | 0.5 to 1 µM
6 | O=C(CCOCCN1CCN(c2ccc3c(c2)CN(C2CCC(=O)NC2=O)C3=O)CC1)NCCOc1ncc(Cl)cc1NC(=O)Nc1cnc2ccnn2c1C1CCOC1 (stereo not drawn) [Compound 39, N-[2-[[5-chloro-3-[(7-tetrahydrofuran-3-ylpyrazolo[1,5-a]pyrimidin-6-yl)carbamoylamino]-2-pyridyl]oxy]ethyl]-3-[2-[4-[2-(2,6-dioxo-3-piperidyl)-1-oxo-isoindolin-5-yl]piperazin-1-yl]ethoxy]propanamide] | 0.5 to 1 µM
7 | O=C(CCOCCOCCN1CCN(c2ccc3c(c2)CN(C2CCC(=O)NC2=O)C3=O)CC1)NCCOc1ncc(Cl)cc1NC(=O)Nc1cnc2ccnn2c1C1CCOC1 (stereo not drawn) [Compound 40, N-[2-[[5-chloro-3-[(7-tetrahydrofuran-3-ylpyrazolo[1,5-a]pyrimidin-6-yl)carbamoylamino]-2-pyridyl]oxy]ethyl]-3-[2-[2-[4-[2-(2,6-dioxo-3-piperidyl)-1-oxo-isoindolin-5-yl]piperazin-1-yl]ethoxy]ethoxy]propanamide] | 0.5 to 1 µM
8 | O=C(CCOCCOCCN1CCN(c2ccc3c(c2)CN(C2CCC(=O)NC2=O)C3=O)CC1)NCCOc1ncc(Cl)cc1NC(=O)Nc1cnc2ccnn2c1C1CCOCC1 (stereo not drawn) [Compound 41, N-[2-[[5-chloro-3-[(7-tetrahydropyran-4-ylpyrazolo[1,5-a]pyrimidin-6-yl)carbamoylamino]-2-pyridyl]oxy]ethyl]-3-[2-[2-[4-[2-(2,6-dioxo-3-piperidyl)-1-oxo-isoindolin-5-yl]piperazin-1-yl]ethoxy]ethoxy]propanamide] | 0.5 to 1 µM
9 | O=C(CCOCCN1CCN(c2ccc3c(c2)CN(C2CCC(=O)NC2=O)C3=O)CC1)NCCOc1ncc(Cl)cc1NC(=O)Nc1cnc2ccnn2c1C1CCOCC1 (stereo not drawn) [Compound 42, N-[2-[[5-chloro-3-[(7-tetrahydropyran-4-ylpyrazolo[1,5-a]pyrimidin-6-yl)carbamoylamino]-2-pyridyl]oxy]ethyl]-3-[2-[4-[2-(2,6-dioxo-3-piperidyl)-1-oxo-isoindolin-5-yl]piperazin-1-yl]ethoxy]propanamide] | 0.5 to 1 µM
10 | O=C(CCOCCN1CCN(c2ccc3c(c2)CN(C2CCC(=O)NC2=O)C3=O)CC1)NCCOc1ccc(Cl)cc1NC(=O)Nc1cnc2ccnn2c1C1CCCC1 (stereo not drawn) [Compound 43, N-[2-[4-chloro-2-[(7-cyclopentylpyrazolo[1,5-a]pyrimidin-6-yl)carbamoylamino]phenoxy]ethyl]-3-[2-[4-[2-(2,6-dioxo-3-piperidyl)-1-oxo-isoindolin-5-yl]piperazin-1-yl]ethoxy]propanamide] | 1 to 5 µM
11 | O=C(CCOCCN1CCN(c2ccc3c(c2)CN(C2CCC(=O)NC2=O)C3=O)CC1)NCCOc1ncc(Cl)cc1NC(=O)Nc1cnc2ccnn2c1C1CCCCC1 (stereo not drawn) [Compound 44] | 1 to 5 µM
12 | O=C(CCOCCN1CCN(c2ccc3c(c2)CN(C2CCC(=O)NC2=O)C3=O)CC1)NCCNC(=O)C1CCCN1C(=O)Nc1cnc2ccnn2c1C1CCCC1 (stereo not drawn) [Compound 45, N1-(7-cyclopentylpyrazolo[1,5-a]pyrimidin-6-yl)-N2-[2-[3-[2-[4-[2-(2,6-dioxo-3-piperidyl)-1-oxo-isoindolin-5-yl]piperazin-1-yl]ethoxy]propanoylamino]ethyl]pyrrolidine-1,2-dicarboxamide] | > 5 µM
13 | O=C(CCOCCN1CCN(c2ccc3c(c2)CN(C2CCC(=O)NC2=O)C3=O)CC1)NCCNC(=O)[C@@H]1C[C@@H](O)CN1C(=O)Nc1cnc2ccnn2c1C1CCCC1 (stereo partly drawn) [Compound 46, (2S,4R)-N1-(7-cyclopentylpyrazolo[1,5-a]pyrimidin-6-yl)-N2-[2-[3-[2-[4-[2-(2,6-dioxo-3-piperidyl)-1-oxo-isoindolin-5-yl]piperazin-1-yl]ethoxy]propanoylamino]ethyl]-4-hydroxy-pyrrolidine-1,2-dicarboxamide] | > 5 µM
14 | O=C(CCOCCOCCN1CCN(c2ccc3c(c2)CN(C2CCC(=O)NC2=O)C3=O)CC1)NCCNC(=O)[C@@H]1C[C@@H](O)CN1C(=O)Nc1cnc2ccnn2c1C1CCCC1 (stereo partly drawn) [Compound 47, (2S,4R)-N1-(7-cyclopentylpyrazolo[1,5-a]pyrimidin-6-yl)-N2-[2-[3-[2-[2-[4-[2-(2,6-dioxo-3-piperidyl)-1-oxo-isoindolin-5-yl]piperazin-1-yl]ethoxy]ethoxy]propanoylamino]ethyl]-4-hydroxy-pyrrolidine-1,2-dicarboxamide] | > 5 µM
15 | O=C(CCOCCOCCN1CCN(c2ccc3c(c2)CN(C2CCC(=O)NC2=O)C3=O)CC1)NCCNC(=O)C1CCCN1C(=O)Nc1cnc2ccnn2c1C1CCCC1 (stereo not drawn) [Compound 48, N1-(7-cyclopentylpyrazolo[1,5-a]pyrimidin-6-yl)-N2-[2-[3-[2-[2-[4-[2-(2,6-dioxo-3-piperidyl)-1-oxo-isoindolin-5-yl]piperazin-1-yl]ethoxy]ethoxy]propanoylamino]ethyl]pyrrolidine-1,2-dicarboxamide] | > 5 µM
16 | O=C(CCOCCOCCN1CCN(c2ccc3c(c2)CN(C2CCC(=O)NC2=O)C3=O)CC1)NCCOc1ccc(Cl)cc1NC(=O)Nc1cnc2ccnn2c1C1CCCC1 (stereo not drawn) [Compound 49, N-[2-[4-chloro-2-[(7-cyclopentylpyrazolo[1,5-a]pyrimidin-6-yl)carbamoylamino]phenoxy]ethyl]-3-[2-[2-[4-[2-(2,6-dioxo-3-piperidyl)-1-oxo-isoindolin-5-yl]piperazin-1-yl]ethoxy]ethoxy]propanamide] | 1 to 5 µM
17 | O=C(CCOCCN1CCN(c2ccc3c(c2)CN(C2CCC(=O)NC2=O)C3=O)CC1)NCCOc1ncc(Cl)cc1NC(=O)Nc1cn2ccnc2nc1C1CCCCC1 (stereo not drawn) [Compound 50, N-[2-[[5-chloro-3-[(7-cyclohexylimidazo[1,2-a]pyrimidin-6-yl)carbamoylamino]-2-pyridyl]oxy]ethyl]-3-[2-[4-[2-(2,6-dioxo-3-piperidyl)-1-oxo-isoindolin-5-yl]piperazin-1-yl]ethoxy]propanamide] | 1 to 5 µM
18 | O=C(CCOCCN1CCN(c2ccc3c(c2)CN(C2CCC(=O)NC2=O)C3=O)CC1)NCCOc1ncc(Cl)cc1NC(=O)Nc1cnc2ncnn2c1C1CCCCC1 (stereo not drawn) [Compound 51, N-[2-[[5-chloro-3-[(7-cyclohexyl-[1,2,4]triazolo[1,5-a]pyrimidin-6-yl)carbamoylamino]-2-pyridyl]oxy]ethyl]-3-[2-[4-[2-(2,6-dioxo-3-piperidyl)-1-oxo-isoindolin-5-yl]piperazin-1-yl]ethoxy]propanamide] | > 5 µM
